Results as given in patent publication US7700592B2, “α2C adrenoreceptor agonists” (Schering Corporation, priority 2005, dated 2010).

Molecular target: T1, α2C receptor (Homo sapiens, UniProt P18825)
T1 sequence (P18825 1-462): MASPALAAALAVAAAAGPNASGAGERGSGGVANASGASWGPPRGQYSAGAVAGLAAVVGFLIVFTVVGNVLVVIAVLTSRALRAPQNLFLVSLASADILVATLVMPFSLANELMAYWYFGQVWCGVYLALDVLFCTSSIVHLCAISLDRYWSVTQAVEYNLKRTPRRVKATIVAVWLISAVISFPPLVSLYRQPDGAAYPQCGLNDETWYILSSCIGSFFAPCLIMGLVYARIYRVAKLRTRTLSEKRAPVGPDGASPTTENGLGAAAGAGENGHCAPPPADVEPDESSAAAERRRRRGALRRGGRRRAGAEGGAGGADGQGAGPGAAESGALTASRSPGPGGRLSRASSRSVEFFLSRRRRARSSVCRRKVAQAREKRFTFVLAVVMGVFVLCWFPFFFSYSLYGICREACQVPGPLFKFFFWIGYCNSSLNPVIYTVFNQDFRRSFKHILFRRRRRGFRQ
Experiment: GTPγS assay, efficacy agonist activity (Emax) for α2C
Assay type: biochemical
Conditions: active agonist = efficacy at α2C ≧30% Emax; functionally selective = additionally efficacy at α2A ≦30% Emax (GTPγS assay)
Summary of the method: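 Emax measured in a [^35S]GTPγS functional assay at the human α2C adrenoceptor, following Umland et al. An efficacy of ≧30% Emax defines an active α2C agonist.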

| SMILES | Efficacy agonist activity (Emax, GTPγS assay) for α2C: evaluated as active or functionally selective agonist |
| --- | --- |
| CCN(c1ccc2c(c1)N(Cc1c[nH]cn1)CCO2)c1cnccn1 [Compound 329] | active or functionally selective agonists of the α2C receptor subtype |
| CCN(c1ccc2c(c1)N(Cc1c[nH]cn1)CCO2)c1ncc([N+](=O)[O-])s1 [Compound 331] | active or functionally selective agonists of the α2C receptor subtype |
| CN(c1ccc2c(c1)N(Cc1c[nH]cn1)CCO2)c1ccccn1 [Compound 332] | active or functionally selective agonists of the α2C receptor subtype |
| CCN(c1ccc2c(c1)N(Cc1c[nH]cn1)CCO2)S(=O)(=O)CCN1C(=O)c2ccccc2C1=O [Compound 335] | active or functionally selective agonists of the α2C receptor subtype |
| Cc1cc(COC(=O)Nc2ccc3c(c2)N(Cc2c[nH]cn2)CCO3)n(C)n1 [Compound 340] | active or functionally selective agonists of the α2C receptor subtype |
